Data as given in ChEMBL document CHEMBL1201862, “PubChem BioAssay data set” (2004).
Activity calls are given as the source filed them.

Columns and labels:
[1] = target: Cytochrome P450 2C9 (Homo sapiens, UniProt P11712); conditions: Potency
[2] = target: Vasopressin V1a receptor (Homo sapiens, UniProt P37288); assay: Counterscreen for Oxytocin Receptor (OXTR) agonists: Fluorescence-based cell-based high throughput dose response assay to identify agonists of the vasopressin 1 receptor (V1R). [Related pubchem assays: 2435 (Primary screen (OXTR agonists in singlicate)), 434991 (Counterscreen (V1R agonists in triplicate)), 2482 (Summary (OXTR agonists)) …; type: functional
Vasopressin V1a receptor, sequence (P37288 whole entry): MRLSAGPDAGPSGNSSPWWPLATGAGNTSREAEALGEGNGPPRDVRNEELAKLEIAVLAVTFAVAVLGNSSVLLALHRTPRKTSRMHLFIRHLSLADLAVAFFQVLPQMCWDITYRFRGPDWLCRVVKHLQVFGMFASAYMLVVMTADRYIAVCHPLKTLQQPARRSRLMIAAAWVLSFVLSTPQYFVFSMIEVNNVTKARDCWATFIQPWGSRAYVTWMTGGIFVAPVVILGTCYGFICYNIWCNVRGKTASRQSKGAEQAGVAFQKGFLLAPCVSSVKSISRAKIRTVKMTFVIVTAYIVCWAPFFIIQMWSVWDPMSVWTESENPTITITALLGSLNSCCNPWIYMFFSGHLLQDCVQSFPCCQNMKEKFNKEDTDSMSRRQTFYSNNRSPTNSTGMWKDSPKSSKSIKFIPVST

[3] = target: Oxytocin receptor (Homo sapiens, UniProt P30559); assay: Fluorescence-based cell-based high throughput dose response assay for agonists of the Oxytocin Receptor (OXTR). [Related pubchem assays: 2435 (Primary screen (OXTR agonists in singlicate)), 434991 (Counterscreen (V1R agonists in triplicate)), 2482 (Summary (OXTR agonists)), 434963 (Confirmation screen (OXTR agonists in triplicate))]; type: functional
Oxytocin receptor, sequence (P30559 whole entry): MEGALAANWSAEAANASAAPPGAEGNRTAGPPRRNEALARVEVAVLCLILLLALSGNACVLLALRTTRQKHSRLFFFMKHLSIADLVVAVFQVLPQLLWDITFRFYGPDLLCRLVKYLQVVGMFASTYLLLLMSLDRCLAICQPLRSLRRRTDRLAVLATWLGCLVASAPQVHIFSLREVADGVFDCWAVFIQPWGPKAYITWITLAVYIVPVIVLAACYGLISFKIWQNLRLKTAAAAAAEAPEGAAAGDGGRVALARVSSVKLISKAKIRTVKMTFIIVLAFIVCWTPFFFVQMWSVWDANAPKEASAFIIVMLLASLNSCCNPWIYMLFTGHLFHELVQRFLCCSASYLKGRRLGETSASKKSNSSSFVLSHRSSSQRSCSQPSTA

[4] = luciferase reporter signal suppression in cells – H4 neuroglioma cells, luminescence, dose response (AID 1990); type: functional, cell-based
[5] = luciferase reporter signal reduction – luminescence, H4-C neuroglioblastoma cells, dose response (AID 2458); type: functional, cell-based;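 further: H4 neuroglioblastoma cells stably carrying a luciferase reporter gene fusion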
[6] = cells; type: functional, cell-based
[7] = Luminescence Cell-Based Dose Response HTS to Identify Inhibitors of 5'UTR Stem-Loop Driven Prion Protein mRNA Translation in H4 Neuroglioblastoma Cells. [Related pubchem assays: 1827 (Project Summary), 1813 (Primary HTS)]; type: functional
[8] = alpha-synuclein stem-loop luciferase translation blockers – H4 neuroglioma cells, luminescence, confirmation (AID 1988); type: functional, cell-based
[9] = Luminescence-based counterscreen assay for KLF5 inhibitors: dose response cell-based high throughput screening assay to identify cytotoxic compounds using the IEC-6 intestinal epithelial cell line. [Related pubchem assays: 1700 (Primary screen.), 1834 (Confirmation screen.), 1858 (Summary AID.), 1905 (Counterscreen.)]; type: functional
[10] = target: Heat shock protein HSP 90-alpha (Homo sapiens, UniProt P07900); assay: Luminescence-based dose response biochemical high throughput screening assay for inhibitors of the Heat Shock Protein 90 (HSP90). [Related pubchem assays: 1831 (Summary AID.), 1846 (Confirmation screen.), 1789 (Primary screen.)]
[11] = alpha-synuclein stem-loop translation blockers – luminescence, H4 neuroglioblastoma cells, dose confirmation, confirmation (AID 2454); type: functional, cell-based;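 further: H4 neuroglioblastoma cells carrying an alpha-synuclein 5'UTR luciferase reporter; potency for inhibition of the luciferase signal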
[12] = HEK-293T viability loss after treatment – luminescence, T-cell screen hits, cytotoxicity control for TCR NF-kB inhibitor project, dose response (AID 489026); type: functional, cell-based;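 further: cells exposed to compound about 14 hours before the viability readout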
[13] = target: T1, Histone-lysine N-methyltransferase NSD2 (Homo sapiens, UniProt O96028); type: biochemical
T1 sequence (O96028 whole entry): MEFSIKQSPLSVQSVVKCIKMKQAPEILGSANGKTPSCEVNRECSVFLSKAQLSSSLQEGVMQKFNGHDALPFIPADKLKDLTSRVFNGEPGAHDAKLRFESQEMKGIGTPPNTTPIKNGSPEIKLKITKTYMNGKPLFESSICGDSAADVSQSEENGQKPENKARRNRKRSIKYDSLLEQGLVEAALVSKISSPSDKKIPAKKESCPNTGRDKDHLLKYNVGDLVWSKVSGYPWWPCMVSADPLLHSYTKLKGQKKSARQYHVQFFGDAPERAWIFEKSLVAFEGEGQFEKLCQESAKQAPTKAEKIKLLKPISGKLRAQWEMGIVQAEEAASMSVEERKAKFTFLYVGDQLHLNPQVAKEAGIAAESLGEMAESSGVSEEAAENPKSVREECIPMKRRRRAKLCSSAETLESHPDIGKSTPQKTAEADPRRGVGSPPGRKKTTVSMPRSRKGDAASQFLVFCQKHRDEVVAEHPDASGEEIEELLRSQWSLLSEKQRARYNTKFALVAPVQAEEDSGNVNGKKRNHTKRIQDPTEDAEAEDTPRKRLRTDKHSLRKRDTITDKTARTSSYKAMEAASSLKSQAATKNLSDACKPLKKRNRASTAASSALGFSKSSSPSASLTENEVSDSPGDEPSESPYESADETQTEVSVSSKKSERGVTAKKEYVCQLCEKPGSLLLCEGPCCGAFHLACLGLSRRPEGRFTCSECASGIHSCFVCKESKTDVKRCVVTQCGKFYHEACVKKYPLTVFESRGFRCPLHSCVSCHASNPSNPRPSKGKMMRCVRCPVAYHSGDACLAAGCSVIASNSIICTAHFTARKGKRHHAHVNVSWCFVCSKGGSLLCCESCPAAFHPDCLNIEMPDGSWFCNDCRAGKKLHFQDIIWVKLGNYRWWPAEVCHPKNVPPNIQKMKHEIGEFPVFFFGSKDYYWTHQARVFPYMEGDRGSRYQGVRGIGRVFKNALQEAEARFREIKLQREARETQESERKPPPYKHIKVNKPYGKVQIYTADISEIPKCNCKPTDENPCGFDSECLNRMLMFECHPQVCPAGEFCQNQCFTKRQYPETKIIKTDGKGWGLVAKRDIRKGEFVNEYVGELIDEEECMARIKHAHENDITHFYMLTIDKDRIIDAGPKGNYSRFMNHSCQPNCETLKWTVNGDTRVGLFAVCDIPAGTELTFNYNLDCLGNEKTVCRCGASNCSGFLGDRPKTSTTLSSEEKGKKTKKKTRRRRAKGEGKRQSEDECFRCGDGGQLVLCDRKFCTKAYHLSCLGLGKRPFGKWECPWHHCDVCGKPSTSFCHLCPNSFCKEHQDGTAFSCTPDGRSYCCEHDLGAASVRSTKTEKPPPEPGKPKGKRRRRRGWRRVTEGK

[14] = target: Aspartyl aminopeptidase (Plasmodium falciparum 3D7, UniProt Q8I2J3)
Aspartyl aminopeptidase, sequence (Q8I2J3 whole entry): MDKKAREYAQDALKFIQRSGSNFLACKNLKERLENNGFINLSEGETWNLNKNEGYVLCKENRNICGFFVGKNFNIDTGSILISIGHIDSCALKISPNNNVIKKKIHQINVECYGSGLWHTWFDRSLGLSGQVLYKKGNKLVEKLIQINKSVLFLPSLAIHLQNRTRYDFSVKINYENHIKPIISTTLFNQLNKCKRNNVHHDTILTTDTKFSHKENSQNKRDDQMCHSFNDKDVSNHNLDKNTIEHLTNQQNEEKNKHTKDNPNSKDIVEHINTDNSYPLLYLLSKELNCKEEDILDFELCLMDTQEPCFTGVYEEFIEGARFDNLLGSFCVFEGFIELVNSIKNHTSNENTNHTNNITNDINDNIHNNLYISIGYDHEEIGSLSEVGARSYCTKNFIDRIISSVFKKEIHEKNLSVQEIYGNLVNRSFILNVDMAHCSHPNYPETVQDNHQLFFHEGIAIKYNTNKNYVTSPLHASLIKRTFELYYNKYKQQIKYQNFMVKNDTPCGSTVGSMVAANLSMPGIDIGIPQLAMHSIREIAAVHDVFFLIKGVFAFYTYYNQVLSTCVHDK

[15] = target: Procathepsin L (Homo sapiens, UniProt P07711)
Procathepsin L, sequence (P07711 whole entry): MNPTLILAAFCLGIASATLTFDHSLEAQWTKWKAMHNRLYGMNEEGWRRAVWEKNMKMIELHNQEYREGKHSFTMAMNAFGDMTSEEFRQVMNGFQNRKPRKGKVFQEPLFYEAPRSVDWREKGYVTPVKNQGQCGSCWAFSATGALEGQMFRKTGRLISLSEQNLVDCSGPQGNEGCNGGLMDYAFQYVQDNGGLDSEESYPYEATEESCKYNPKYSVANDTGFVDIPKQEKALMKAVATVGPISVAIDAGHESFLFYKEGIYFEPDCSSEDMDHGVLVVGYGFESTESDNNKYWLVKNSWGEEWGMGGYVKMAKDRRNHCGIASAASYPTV

[16] = target: T2, Hexokinase HKDC1 (Homo sapiens, UniProt Q2TB90); assay: inhibition of HKDC1 glucose phosphorylation – biochemical, W721R variant, dose response (AID 504729); type: functional
T2 sequence (Q2TB90 whole entry): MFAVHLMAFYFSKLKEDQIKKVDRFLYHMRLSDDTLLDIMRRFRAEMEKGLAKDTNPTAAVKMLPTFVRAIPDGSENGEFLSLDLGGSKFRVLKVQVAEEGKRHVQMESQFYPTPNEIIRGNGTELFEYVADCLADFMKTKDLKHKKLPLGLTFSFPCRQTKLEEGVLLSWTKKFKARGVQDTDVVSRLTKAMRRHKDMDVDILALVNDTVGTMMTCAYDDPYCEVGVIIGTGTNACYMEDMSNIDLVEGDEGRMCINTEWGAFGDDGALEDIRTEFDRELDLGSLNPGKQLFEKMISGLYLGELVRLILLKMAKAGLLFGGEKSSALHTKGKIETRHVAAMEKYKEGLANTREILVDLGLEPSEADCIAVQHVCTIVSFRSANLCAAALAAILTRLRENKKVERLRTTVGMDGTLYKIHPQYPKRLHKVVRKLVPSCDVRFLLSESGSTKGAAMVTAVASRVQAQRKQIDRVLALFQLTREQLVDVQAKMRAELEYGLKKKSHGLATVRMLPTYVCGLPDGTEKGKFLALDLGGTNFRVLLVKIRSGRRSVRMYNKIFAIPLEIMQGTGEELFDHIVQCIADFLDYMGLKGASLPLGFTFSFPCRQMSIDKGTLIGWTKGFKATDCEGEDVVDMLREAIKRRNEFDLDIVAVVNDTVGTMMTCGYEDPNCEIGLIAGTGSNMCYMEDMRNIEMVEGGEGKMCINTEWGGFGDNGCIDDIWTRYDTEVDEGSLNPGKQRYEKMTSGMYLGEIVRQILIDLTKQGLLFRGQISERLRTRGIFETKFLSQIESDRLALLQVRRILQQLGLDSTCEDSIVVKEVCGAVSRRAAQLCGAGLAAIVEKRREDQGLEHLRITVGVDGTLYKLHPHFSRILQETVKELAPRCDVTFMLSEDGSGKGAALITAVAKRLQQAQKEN

[17] = target: Eukaryotic translation initiation factor 4H (Homo sapiens, UniProt Q15056); assay: eIF4H binding inhibition – biochemical, uHTS, fluorescence polarization, translation initiation inhibitor project, primary screen (AID 2012)
[18] = target: Polyadenylate-binding protein 1 (Homo sapiens, UniProt P11940); assay: blockers of PABP interaction with poly(A) – biochemical, fluorescence polarization, […] (AID 2014)
Polyadenylate-binding protein 1, sequence (P11940 whole entry): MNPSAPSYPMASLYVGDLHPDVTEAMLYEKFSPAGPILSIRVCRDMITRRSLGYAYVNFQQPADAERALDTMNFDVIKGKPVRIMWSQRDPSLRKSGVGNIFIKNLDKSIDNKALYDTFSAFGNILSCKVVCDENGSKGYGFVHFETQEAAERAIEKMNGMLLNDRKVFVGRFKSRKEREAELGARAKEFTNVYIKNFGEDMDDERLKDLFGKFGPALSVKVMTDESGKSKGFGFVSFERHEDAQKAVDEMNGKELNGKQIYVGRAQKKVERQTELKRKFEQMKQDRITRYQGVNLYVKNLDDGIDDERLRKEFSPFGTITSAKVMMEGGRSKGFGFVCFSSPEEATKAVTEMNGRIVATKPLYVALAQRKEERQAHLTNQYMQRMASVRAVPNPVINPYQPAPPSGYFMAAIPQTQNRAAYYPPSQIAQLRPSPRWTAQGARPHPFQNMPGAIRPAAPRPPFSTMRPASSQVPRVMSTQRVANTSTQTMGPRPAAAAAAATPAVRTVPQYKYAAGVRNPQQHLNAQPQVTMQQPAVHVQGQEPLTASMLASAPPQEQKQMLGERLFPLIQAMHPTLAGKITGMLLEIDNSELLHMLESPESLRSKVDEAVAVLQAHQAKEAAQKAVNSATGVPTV

[19] = target: DNA dC->dU-editing enzyme APOBEC-3A (Homo sapiens, UniProt P31941); assay: Dose Response confirmation of small molecule APOBEC3A DNA Deaminase Inhibitors via a fluorescence-based single-stranded DNA deaminase assay. [Related pubchem assays (depositor defined):AID493011, AID493024]; type: functional
DNA dC->dU-editing enzyme APOBEC-3A, sequence (P31941 whole entry): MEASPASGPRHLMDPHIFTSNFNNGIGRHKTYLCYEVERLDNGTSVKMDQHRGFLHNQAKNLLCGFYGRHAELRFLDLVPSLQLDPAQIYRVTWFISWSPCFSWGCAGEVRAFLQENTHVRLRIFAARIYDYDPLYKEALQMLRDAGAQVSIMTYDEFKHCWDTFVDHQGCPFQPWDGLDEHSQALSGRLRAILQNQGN

[20] = target: DNA dC->dU-editing enzyme APOBEC-3G (Homo sapiens, UniProt Q9HC16); type: functional;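 further: Dose-response counterscreen measuring inhibition of APOBEC3G DNA deaminase activity, run while confirming APOBEC3A inhibitors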
DNA dC->dU-editing enzyme APOBEC-3G, sequence (Q9HC16 whole entry): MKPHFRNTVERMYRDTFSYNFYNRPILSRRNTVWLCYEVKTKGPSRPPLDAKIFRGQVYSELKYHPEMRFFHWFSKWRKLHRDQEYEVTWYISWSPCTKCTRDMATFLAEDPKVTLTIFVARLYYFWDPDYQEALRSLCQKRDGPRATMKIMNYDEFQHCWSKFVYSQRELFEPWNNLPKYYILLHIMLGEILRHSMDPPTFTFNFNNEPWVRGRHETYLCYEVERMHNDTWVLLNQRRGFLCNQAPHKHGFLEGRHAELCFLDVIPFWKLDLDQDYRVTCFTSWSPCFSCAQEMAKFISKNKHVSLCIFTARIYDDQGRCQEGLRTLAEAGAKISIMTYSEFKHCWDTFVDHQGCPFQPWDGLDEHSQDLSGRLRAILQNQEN

[21] = target: T3, Dual specificity protein phosphatase 3 (Homo sapiens, UniProt P51452); assay: SAR VHR1 absorbance Assay for In Vitro dose response studies. [Related pubchem assays (depositor defined):AID1654, AID1661, AID1878, AID1992, AID2004]
T3 sequence (P51452 whole entry): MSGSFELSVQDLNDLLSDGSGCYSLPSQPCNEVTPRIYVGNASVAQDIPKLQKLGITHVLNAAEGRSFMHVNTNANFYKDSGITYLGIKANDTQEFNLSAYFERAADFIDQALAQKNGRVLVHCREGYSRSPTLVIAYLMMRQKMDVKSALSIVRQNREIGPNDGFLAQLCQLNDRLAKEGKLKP

[22] = target: T3, Dual specificity protein phosphatase 3; assay: SAR VHR1 Fluorescent Assay for In Vitro dose response studies. [Related pubchem assays (depositor defined):AID1654, AID1661, AID1878, AID1992, AID2004, AID2070, AID2085]; type: functional
[23] = target: T3, Dual specificity protein phosphatase 3; assay: MOA VHR1 Fluorescent secondary assay for identification of redox-state modulating compounds. [Related pubchem assays (depositor defined):AID1654, AID1661, AID1878, AID1957]
[24] = target: T4, Tyrosine-protein phosphatase non-receptor type 7 (Homo sapiens, UniProt P35236); assay: redox-active compounds inhibiting HePTP phosphatase – biochemical, fluorescence, mechanism study (AID 2068); type: functional
T4 sequence (P35236 whole entry): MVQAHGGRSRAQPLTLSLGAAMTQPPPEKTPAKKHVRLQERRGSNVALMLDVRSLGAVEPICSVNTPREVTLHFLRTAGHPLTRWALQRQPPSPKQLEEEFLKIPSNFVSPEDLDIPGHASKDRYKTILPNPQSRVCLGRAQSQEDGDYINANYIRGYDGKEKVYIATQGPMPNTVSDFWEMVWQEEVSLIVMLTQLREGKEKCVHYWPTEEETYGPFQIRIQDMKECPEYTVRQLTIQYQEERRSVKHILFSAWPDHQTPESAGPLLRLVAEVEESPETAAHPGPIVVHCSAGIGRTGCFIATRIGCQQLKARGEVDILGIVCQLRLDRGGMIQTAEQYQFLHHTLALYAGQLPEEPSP

[25] = target: Dual specificity protein phosphatase 6 (Rattus norvegicus, UniProt Q64346); type: functional;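 further: confirmatory in vitro dose-response testing of MKP-3 inhibition; recombinant His-tagged MKP-3 made in E. coli BL21 with OMFP substrate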
Dual specificity protein phosphatase 6, sequence (Q64346 whole entry): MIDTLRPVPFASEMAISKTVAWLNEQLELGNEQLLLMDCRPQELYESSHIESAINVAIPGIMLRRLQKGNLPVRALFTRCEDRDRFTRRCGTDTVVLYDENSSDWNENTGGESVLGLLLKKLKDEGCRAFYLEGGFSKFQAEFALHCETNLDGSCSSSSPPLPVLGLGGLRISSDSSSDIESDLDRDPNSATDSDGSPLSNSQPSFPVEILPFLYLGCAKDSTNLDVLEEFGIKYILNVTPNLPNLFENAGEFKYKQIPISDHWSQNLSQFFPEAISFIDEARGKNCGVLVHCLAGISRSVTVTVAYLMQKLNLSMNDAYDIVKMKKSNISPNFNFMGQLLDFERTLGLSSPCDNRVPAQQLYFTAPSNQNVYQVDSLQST

[26] = target: T5, Rac GTPase-activating protein 1 (Homo sapiens, UniProt Q9H0H5); assay: blockers of MgcRacGAP-driven Rac1 GTP hydrolysis – biochemical, ADP Hunter fluorescence, primary and confirmatory, confirmation (AID 624330); type: functional
T5 sequence (Q9H0H5 whole entry): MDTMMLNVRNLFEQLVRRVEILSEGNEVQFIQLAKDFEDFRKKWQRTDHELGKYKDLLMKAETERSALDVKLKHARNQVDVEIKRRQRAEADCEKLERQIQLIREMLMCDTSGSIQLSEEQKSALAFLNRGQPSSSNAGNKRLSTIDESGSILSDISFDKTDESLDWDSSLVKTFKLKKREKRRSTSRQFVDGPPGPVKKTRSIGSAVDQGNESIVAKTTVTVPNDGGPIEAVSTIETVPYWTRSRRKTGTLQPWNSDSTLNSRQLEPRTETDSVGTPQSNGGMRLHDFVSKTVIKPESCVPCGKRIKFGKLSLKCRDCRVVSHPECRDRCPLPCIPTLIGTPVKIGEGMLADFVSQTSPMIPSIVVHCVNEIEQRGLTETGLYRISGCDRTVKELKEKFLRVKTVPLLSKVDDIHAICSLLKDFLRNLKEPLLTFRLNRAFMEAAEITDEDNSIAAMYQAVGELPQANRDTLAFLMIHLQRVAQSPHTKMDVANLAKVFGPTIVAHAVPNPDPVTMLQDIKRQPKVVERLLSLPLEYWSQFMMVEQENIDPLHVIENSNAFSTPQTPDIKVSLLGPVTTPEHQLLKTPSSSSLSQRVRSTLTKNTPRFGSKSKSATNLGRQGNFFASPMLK

Cytochrome P450 2C9, sequence (P11712 whole entry): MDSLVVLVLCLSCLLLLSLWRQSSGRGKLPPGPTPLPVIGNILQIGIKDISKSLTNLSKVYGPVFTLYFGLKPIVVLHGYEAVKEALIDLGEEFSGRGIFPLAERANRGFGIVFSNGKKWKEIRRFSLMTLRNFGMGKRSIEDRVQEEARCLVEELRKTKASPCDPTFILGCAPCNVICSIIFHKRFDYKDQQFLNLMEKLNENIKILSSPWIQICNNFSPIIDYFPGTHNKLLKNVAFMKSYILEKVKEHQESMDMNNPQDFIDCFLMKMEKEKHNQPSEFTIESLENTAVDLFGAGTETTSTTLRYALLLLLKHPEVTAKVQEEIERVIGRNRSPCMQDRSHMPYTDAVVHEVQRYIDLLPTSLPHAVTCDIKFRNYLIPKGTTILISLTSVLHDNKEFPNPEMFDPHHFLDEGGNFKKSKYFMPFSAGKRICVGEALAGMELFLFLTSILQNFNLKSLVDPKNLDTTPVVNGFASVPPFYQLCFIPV

c1csc(CNc2ncnc3ccc(-c4ccc5c(c4)OCO5)cc23)c1
AC50 [1]: 0.794 µM (inconclusive)

COc1ccc(C2SCCN2C(S)=Nc2cccc(Cl)c2)cc1 (stereo unspecified)
EC50 [2]: > 29.9 µM (not active) | EC50 [3]: > 29.9 µM (not active)

COc1cc(/C=C/[N+](=O)[O-])ccc1OCc1cccc(C(=O)O)c1
EC50 [4]: 2.43 µM (inconclusive) | EC50 [5]: 0.99 µM (active) | EC50 [6]: > 12 µM (inconclusive) | EC50 [7]: < 0.1 µM (active) | EC50 [8]: 0.161 µM (active) | IC50 [9]: > 39.8 µM (not active) | IC50 [10]: 7.32 µM (active) | EC50 [11]: 0.937 µM (active) | IC50 [12]: > 80 µM (inactive) | AC50 [13]: 11.9 µM (active)

CCC(C)c1ccc(O)c(N)c1 (stereo unspecified)
IC50 [14]: 2.25 µM (active) | IC50 [15]: > 59.6 µM (not active)

COC1(NS(=O)(=O)c2ccc(Br)cc2)C(C)=CC(=O)C=C1C
IC50 [16]: > 80 µM (inactive)

Cn1c(SCC(=O)N2CCOCC2)nnc1-c1cccc(NC(=O)c2ccccc2)c1
IC50 [17]: > 100 µM (inactive) | IC50 [18]: 2.81 µM (active) | IC50 [19]: 2.62 µM (active) | IC50 [20]: 3.37 µM (active)

COc1cc(C(S)=NC2CCCCC2)ccc1O
IC50 [21]: > 100 µM (inactive) | IC50 [22]: 22.5 µM (active) | IC50 [23]: 3.4 µM (active) | IC50 [24]: 2.82 µM (active) | IC50 [25]: > 100 µM (inactive) | IC50 [26]: 32.6 µM (active)
